What follows are compounds tested against T1, human LPA1 (Homo sapiens, UniProt Q92633) (assay: LPA1 functional antagonist assay (calcium flux)). Settings: CHO cells overexpressing human LPA1; calcium flux induced by 10 nM LPA; read-out: hLPA1 IC50.
T1 construct: expressed in transfected cells; host or cells: Chinese hamster ovary (CHO) cells
Assay type: cell-based
Description: The effectiveness of compounds of the present invention as LPA1 inhibitors can be determined in an LPA1 functional antagonist assay as follows:
The cells were then equilibrated to room temperature for 30 minutes before the assay. […] IC50 values were determined by fitting data to a 4-parameter logistic equation (GraphPad Prism, San Diego Calif.).

T1 sequence (Q92633 whole entry): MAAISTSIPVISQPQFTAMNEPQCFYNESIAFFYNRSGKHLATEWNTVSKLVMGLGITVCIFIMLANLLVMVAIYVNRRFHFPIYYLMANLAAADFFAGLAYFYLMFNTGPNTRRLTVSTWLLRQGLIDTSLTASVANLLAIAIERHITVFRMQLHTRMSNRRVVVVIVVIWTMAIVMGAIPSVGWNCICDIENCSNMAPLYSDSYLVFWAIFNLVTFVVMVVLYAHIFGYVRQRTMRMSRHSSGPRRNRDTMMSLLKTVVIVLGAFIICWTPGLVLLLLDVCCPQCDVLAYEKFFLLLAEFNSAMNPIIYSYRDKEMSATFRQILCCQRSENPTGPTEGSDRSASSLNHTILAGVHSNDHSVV

SMILES	IC50 [µM]
CCc1nc(-c2nnn(C)c2CNC(=O)N(C)Cc2ccccc2)ccc1O[C@H]1CCC[C@H](C(=O)O)C1 [Example 149, (1S,3S)-3-((6-(5-((3-benzyl-3-methylureido)methyl)-1-methyl-1H-1,2,3-triazol-4-yl)-2-ethyl-pyridin-3-yl)oxy)cyclohexane-1-carboxylic acid]	0.143
CCCCN(C)C(=O)NCc1c(-c2ccc(O[C@H]3CCC[C@H](C(=O)O)C3)c(CC)n2)nnn1C [Example 150, (1S,3S)-3-((6-(5-((3-butyl-3-methylureido)methyl)-1-methyl-1H-1,2,3-triazol-4-yl)-2-ethyl-pyridin-3-yl)oxy)cyclohexane-1-carboxylic acid]	0.044
CCCCNC(=O)NCc1c(-c2ccc(O[C@H]3CCC[C@H](C(=O)O)C3)c(CC)n2)nnn1C [Example 151, (1S,3S)-3-((6-(5-((3-butyl-ureido)methyl)-1-methyl-1H-1,2,3-triazol-4-yl)-2-ethylpyridin-3-yl)oxy)cyclohexane-1-carboxylic acid]	0.647
CCc1nc(-c2nnn(C)c2CNC(=O)NCC2CC2)ccc1O[C@H]1CCC[C@H](C(=O)O)C1 [Example 152, (1S,3S)-3-((6-(5-((3-(cyclopropyl-methyl)ureido)methyl)-1-methyl-1H-1,2,3-triazol-4-yl)-2-ethyl-pyridin-3-yl)oxy)cyclohexane-1-carboxylic acid]	0.27
CCc1nc(-c2nnn(C)c2CNC(=O)NCc2ccccc2)ccc1O[C@H]1CCC[C@H](C(=O)O)C1 [Example 153, (1S,3S)-3-((6-(5-((3-benzyl-ureido)methyl)-1-methyl-1H-1,2,3-triazol-4-yl)-2-ethylpyridin-3-yl)oxy)cyclohexane-1-carboxylic acid]	0.107

Same assay, conditions: human LPA1 functional antagonist assay; read-out: hLPA1 IC50

SMILES	IC50 [µM]
CC(COC(=O)NCc1c(-c2ncc(O[C@H]3CCC[C@H](C(=O)O)C3)cn2)nnn1C)CC(F)(F)F (stereo partly drawn) [Example 154, (1S,3S)-3-((2-(1-methyl-5-((((4,4,4-trifluoro-2-methylbutoxy)carbonyl)amino)methyl)-1H-1,2,3-triazol-4-yl)pyrimidin-5-yl)oxy)cyclohexane-1-carboxylic acid]	2.9
Cc1nc(-c2nnn(C)c2CNC(=O)OCC(C)CC(F)(F)F)cnc1O[C@H]1CCC[C@H](C(=O)O)C1 (stereo partly drawn) [Example 155, (1S,3S)-3-((3-methyl-5-(1-methyl-5-((((4,4,4-trifluoro-2-methylbutoxy)carbonyl)amino)methyl)-1H-1,2,3-triazol-4-yl)pyrazin-2-yl)oxy)cyclohexane-1-carboxylic acid]	0.085
Cc1nc(-c2nnn(C)c2CNC(=O)OCC2CCC2)cnc1O[C@H]1CCC[C@H](C(=O)O)C1 [Example 156, (1S,3S)-3-((5-(5-((((cyclobutyl-methoxy)carbonyl)amino)methyl)-1-methyl-1H-1,2,3-triazol-4-yl)-3-methylpyrazin-2-yl)oxy)cyclohexane-1-carboxylic acid]	0.213
Cc1nc(-c2nnn(C)c2CNC(=O)OCCC2CC2)ccc1O[C@H]1CCC[C@H](C(=O)O)C1 [Example 157, (1S,3S)-3-((6-(5-((((2-cyclopropyl-ethoxy)carbonyl)amino)methyl)-1-methyl-1H-1,2,3-triazol-4-yl)-2-methylpyridin-3-yl)oxy)cyclo-hexane-1-carboxylic acid]	0.019
Cc1nc(-c2nnn(C)c2CNC(=O)OCCC(C)(C)C)cnc1O[C@H]1CCC[C@H](C(=O)O)C1 [Example 158, (1S,3S)-3-((5-(5-((((3,3-dimethyl-butoxy)carbonyl)amino)methyl)-1-methyl-1H-1,2,3-triazol-4-yl)-3-methylpyrazin-2-yl)oxy)cyclo-hexane-1-carboxylic acid]	0.076
Cc1nc(-c2nnn(C)c2CNC(=O)OCc2cccc(F)c2)cnc1O[C@H]1CCC[C@H](C(=O)O)C1 [Example 159, (1S,3S)-3-((5-(5-(((((3-fluorobenzyl)oxy)carbonyl)amino)methyl)-1-methyl-1H-1,2,3-triazol-4-yl)-3-methylpyrazin-2-yl)oxy)cyclo-hexane-1-carboxylic acid]	0.122
Cc1nc(-c2nnn(C)c2CNC(=O)OCCC2CC2)cnc1O[C@H]1CCC[C@H](C(=O)O)C1 [Example 160, (1S,3S)-3-((5-(5-((((2-cyclopropylethoxy)carbonyl)amino)methyl)-1-methyl-1H-1,2,3-triazol-4-yl)-3-methylpyrazin-2-yl)oxy)cyclo-hexane-1-carboxylic acid]	0.066
CC[C@H](C)COC(=O)NCc1c(-c2cnc(O[C@H]3CCC[C@H](C(=O)O)C3)c(C)n2)nnn1C [Example 161, (1S,3S)-3-((3-methyl-5-(1-methyl-5-(((((S)-2-methylbutoxy)carbonyl)amino)methyl)-1H-1,2,3-triazol-4-yl)pyrazin-2-yl)oxy)cyclohexane-1-carboxylic acid]	0.109
Cc1nc(-c2nnn(C)c2CNC(=O)OCCCCF)ccc1O[C@H]1CCC[C@H](C(=O)O)C1 [Example 162, (1S,3S)-3-((6-(5-((((4-fluorobutoxy)carbonyl)amino)methyl)-1-methyl-1H-1,2,3-triazol-4-yl)-2-methyl-pyridin-3-yl)oxy)cyclohexane-1-carboxylic acid]	0.06
Cc1nc(-c2nnn(C)c2CNC(=O)OCC2(CCF)CC2)ccc1O[C@H]1CCC[C@H](C(=O)O)C1 [Example 163, (1S,3S)-3-((6-(5-(((((1-(2-fluoro-ethyl)cyclopropyl)methoxy)carbonyl)amino)methyl)-1-methyl-1H-1,2,3-triazol-4-yl)-2-methylpyridin-3-yl)oxy)cyclohexane-1-carboxylic acid]	0.088
Cc1nc(-c2nnn(C)c2CNC(=O)OCC2CC2(C)C)ccc1O[C@H]1CCC[C@H](C(=O)O)C1 (stereo partly drawn) [Example 164, (1S,3S)-3-((6-(5-(((((2,2-dimethyl-cyclopropyl)methoxy)carbonyl)amino)methyl)-1-methyl-1H-1,2,3-triazol-4-yl)-2-methylpyridin-3-yl)oxy)cyclohexane-1-carboxylic acid]	0.065
CCC[C@H](C)OC(=O)NCc1c(-c2ccc(O[C@H]3CCC[C@H](C(=O)O)C3)c(C)n2)nnn1C [Example 165, (1S,3S)-3((2-methyl-6-(1-methyl-5-((((((S)-pentan-2-yl)oxy)carbonyl)amino)methyl)-1H-1,2,3-triazol-4-yl)pyridin-3-yl)oxy)cyclohexane-1-carboxylic acid]	0.034
Cc1nc(-c2nnn(C)c2CNC(=O)OCCCCC(F)(F)F)ccc1O[C@H]1CCC[C@H](C(=O)O)C1 [Example 166, (1S,3S)-3-((2-methyl-6-(1-methyl-5-(((((5,5,5-trifluoropentyl)oxy)carbonyl)amino)methyl)-1H-1,2,3-triazol-4-yl)pyridin-3-yl)oxy)cyclohexane-1-carboxylic acid]	0.121
Cc1nc(-c2nnn(C)c2CNC(=O)O[C@H](C)C2CC2)ccc1O[C@H]1CCC[C@H](C(=O)O)C1 [Example 167, (1S,3S)-3-((6-(5-(((((R)-1-cyclo-propylethoxy)carbonyl)amino)methyl)-1-methyl-1H-1,2,3-triazol-4-yl)-2-methylpyridin-3-yl)oxy)cyclohexane-1-carboxylic acid]	0.427
Cc1nc(-c2nnn(C)c2CNC(=O)OC2CC(C)(C)C2)ccc1O[C@H]1CCC[C@H](C(=O)O)C1 [Example 168, (1S,3S)-3-((6-(5-((((3,3-dimethyl-cyclobutoxy)carbonyl)amino)methyl)-1-methyl-1H-1,2,3-triazol-4-yl)-2-methylpyridin-3-yl)oxy)cyclo-hexane-1-carboxylic acid]	0.09
Cc1nc(-c2nnn(C)c2CNC(=O)OCCCC(F)(F)F)ccc1O[C@H]1CCC[C@H](C(=O)O)C1 [Example 169, (1S,3S)-3-((2-methyl-6-(1-methyl-5-((((4,4,4-trifluorobutoxy)carbonyl)amino)methyl)-1H-1,2,3-triazol-4-yl)pyridin-3-yl)oxy)cyclohexane-1-carboxylic acid]	0.055
Cc1nc(-c2nnn(C)c2CNC(=O)O[C@H](C)C(C)C)ccc1O[C@H]1CCC[C@H](C(=O)O)C1 [Example 170, (1S,3S)-3-((2-methyl-6-(1-methyl-5-((((((R)-3-methylbutan-2-yl)oxy)carbonyl)amino)methyl)-1H-1,2,3-triazol-4-yl)pyridin-3-yl)oxy)cyclohexane-1-carboxylic acid]	0.092
CCC[C@@H](C)OC(=O)NCc1c(-c2ccc(O[C@H]3CCC[C@H](C(=O)O)C3)c(C)n2)nnn1C [Example 171, (1S,3S)-3-((2-methyl-6-(1-methyl-5-((((((R)-pentan-2-yl)oxy)carbonyl)amino)methyl)-1H-1,2,3-triazol-4-yl)pyridin-3-yl)oxy)cyclohexane-1-carboxylic acid]	0.076
CC[C@@H](C)OC(=O)NCc1c(-c2ccc(O[C@H]3CCC[C@H](C(=O)O)C3)c(C)n2)nnn1C [Example 172, (1S,3S)-3-((6-(5-((((R)-sec-butoxycarbonyl)amino)methyl)-1-methyl-1H-1,2,3-triazol-4-yl)-2-methyl-pyridin-3-yl)oxy)cyclohexane-1-carboxylic acid]	0.152
Cc1nc(-c2nnn(C)c2CNC(=O)O[C@@H](C)C(C)C)ccc1O[C@H]1CCC[C@H](C(=O)O)C1 [Example 173, (1S,3S)-3((2-methyl-6-(1-methyl-5-((((((S)-3-methylbutan-2-yl)oxy)carbonyl)amino)methyl)-1H-1,2,3-triazol-4-yl)pyridin-3-yl)oxy)cyclohexane-1-carboxylic acid]	0.167
Cc1nc(-c2nnn(C)c2CNC(=O)O[C@@H](C)C(F)(F)F)ccc1O[C@H]1CCC[C@H](C(=O)O)C1 [Example 174, (1S,3S)-3-((2-methyl-6-(1-methyl-5-((((((S)-1,1,1-trifluoropropan-2-yl)oxy)carbonyl)amino)methyl)-1H-1,2,3-triazol-4-yl)pyridin-3-yl)oxy)cyclohexane-1-carboxylic acid]	0.101
